Structures can show the parent of a compound that is named as a salt.

This experiment concerns the target T1, Full-length USP19 (Homo sapiens, UniProt O94966).
T1 construct: Full-length USP19 was purchased from Boston Biochem (E-576); purchased Boston Biochem E-576
T1 sequence (O94966 1-1318): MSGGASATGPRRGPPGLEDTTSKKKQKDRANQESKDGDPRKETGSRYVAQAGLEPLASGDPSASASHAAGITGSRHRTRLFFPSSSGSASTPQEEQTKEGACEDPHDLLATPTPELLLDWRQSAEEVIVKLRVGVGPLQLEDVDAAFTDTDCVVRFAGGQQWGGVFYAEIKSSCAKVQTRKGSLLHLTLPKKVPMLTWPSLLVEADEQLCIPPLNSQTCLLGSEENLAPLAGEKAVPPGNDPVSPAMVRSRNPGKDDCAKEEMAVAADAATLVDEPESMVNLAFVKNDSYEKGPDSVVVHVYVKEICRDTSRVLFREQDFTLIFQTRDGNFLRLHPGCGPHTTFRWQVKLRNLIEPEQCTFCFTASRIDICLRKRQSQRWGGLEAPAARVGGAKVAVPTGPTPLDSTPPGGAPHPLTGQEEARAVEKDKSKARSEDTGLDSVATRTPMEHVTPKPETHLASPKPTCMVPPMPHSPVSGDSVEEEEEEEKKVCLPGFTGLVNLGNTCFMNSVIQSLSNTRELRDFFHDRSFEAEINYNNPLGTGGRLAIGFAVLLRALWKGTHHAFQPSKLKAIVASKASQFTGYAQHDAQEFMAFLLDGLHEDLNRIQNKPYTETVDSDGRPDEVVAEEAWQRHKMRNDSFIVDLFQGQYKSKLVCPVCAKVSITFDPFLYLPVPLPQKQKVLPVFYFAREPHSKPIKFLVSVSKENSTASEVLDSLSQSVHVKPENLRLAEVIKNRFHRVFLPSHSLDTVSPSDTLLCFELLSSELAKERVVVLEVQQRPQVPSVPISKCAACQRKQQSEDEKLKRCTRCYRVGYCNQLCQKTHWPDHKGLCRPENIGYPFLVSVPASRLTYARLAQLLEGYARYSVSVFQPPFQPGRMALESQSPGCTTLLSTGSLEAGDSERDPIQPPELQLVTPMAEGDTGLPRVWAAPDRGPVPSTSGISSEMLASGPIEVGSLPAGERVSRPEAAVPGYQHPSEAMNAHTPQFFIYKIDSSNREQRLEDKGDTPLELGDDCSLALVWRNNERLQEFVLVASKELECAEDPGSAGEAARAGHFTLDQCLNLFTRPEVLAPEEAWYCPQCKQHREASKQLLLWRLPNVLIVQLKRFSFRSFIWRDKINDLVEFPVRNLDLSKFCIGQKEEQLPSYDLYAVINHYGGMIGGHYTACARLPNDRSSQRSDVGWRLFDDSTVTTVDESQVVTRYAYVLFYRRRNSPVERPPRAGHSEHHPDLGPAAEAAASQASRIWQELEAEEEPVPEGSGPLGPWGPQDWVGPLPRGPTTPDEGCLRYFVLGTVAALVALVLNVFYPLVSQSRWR
Nature of the experiment: USP19 fluorescence polarisation (FP) assay, Ubiquitin-Lys-TAMRA substrate. It counts as biochemical. Particulars: average of at least two duplicate experiments. As to the method: USP19 activity was determined in a fluorescence polarisation (FP) homogeneous assay using the isopeptide Ubiquitin-Lys-TAMRA substrate (either AUB-101, Almac Sciences Scotland Limited, or U-558, Boston Biochem, both of which gave identical results). Full-length USP19 was purchased from Boston Biochem (E-576). Unless otherwise stated, all other reagents were purchased from Sigma. Enzymatic reactions were conducted in black flat bottom polystyrene 384-well plates (Nunc) and 30 μL total volume. USP19 (2.5 nM, 10 μL) was incubated in assay buffer (50 mM HEPES (pH 7.4), 150 mM NaCl, 5 mM DTT, 0.05% BSA (w/v), 0.05% CHAPS) in the presence or absence of inhibitor (10 μL). Inhibitors were stored as 10 mM DMSO stocks in an inert environment (low humidity, dark, low oxygen, rt) using the StoragePod® system (Roylan Developments) and serial dilutions were prepared in buffer just prior to the assay (from 200 μM to 2 μM, 8-18 data point curve). Following incubation at RT for 30 min, the enzymatic reactions were initiated by dispensing the Ub substrate (500 nM, 10 μL). FP was measured every 15 min over a period of 90 min (within the linear range of the assay) using a Synergy 4 plate reader (BioTek) exciting at 530 nm and measuring the amount of parallel and perpendicular light at 575 nm. The FP signal was subsequently normalised to the no compound control. Data were plotted and fitted, and the concentrations resulting in 50% inhibition (IC50) were calculated using the non-linear regression curve fitting model using GraphPad (Prism). IC50 values for the inhibitors of the invention are compiled in Tables 1 and 3 and represent the average of at least two duplicate experiments.

On to `CN[C@@H]1CCN(C(=O)N2CC[C@@H](Cn3cnc(-c4ccccc4C)cc3=O)C3(CCCC3)C2)[C@H](c2cccc(F)c2F)C1` [Example 136, 3-(((R)-7-((2S,4R)-2-(2,3-Difluorophenyl)-4-(methylamino)piperidine-1-carbonyl)-7-azaspiro[4.5]decan-10-yl)methyl)-6-(0-tolyl)pyrimidin-4(3H)-one], for which the IC50 was less than 10 nM.
The result for `CN[C@@H]1CCN(C(=O)N2CC[C@@H](Cn3cnc(-c4ccccc4F)cc3=O)C3(CCCC3)C2)[C@H](c2cc(F)ccc2F)C1` [Example 145, 3-(((R)-7-((2S,4R)-2-(2,5-Difluorophenyl)-4-(methylamino)piperidine-1-carbonyl)-7-azaspiro[4.5]decan-10-yl)methyl)-6-(2-fluorophenyl)pyrimidin-4(3H)-one] reads less than 10 nM; that for `O=C(N1CC[C@@H](Cn2cnc(C(F)F)cc2=O)C2(CCCC2)C1)N1CC[C@@H](NCC(F)F)C[C@H]1c1cc(F)ccc1F` [Example 152, 3-(((R)-7-((2S,4R)-4-((2,2-Difluoroethyl)amino)-2-(2,5-difluorophenyl)piperidine-1-carbonyl)-7-azaspiro[4.5]decan-10-yl)methyl)-6-(difluoromethyl)pyrimidin-4(3H)-one], 10 to 100 nM; that for `CN[C@@H]1CCN(C(=O)N2CC[C@@H](Cn3cnc(C4CC4)cc3=O)C3(CCCC3)C2)[C@H](c2cc(F)ccc2F)C1` [Example 163, 6-Cyclopropyl-3-(((R)-7-((2S,4R)-2-(2,5-difluorophenyl)-4-(methylamino)piperidine-1-carbonyl)-7-azaspiro[4.5]decan-10-yl)methyl)pyrimidin-4(3H)-one], less than 10 nM.
The result for `CN[C@@H]1CCN(C(=O)N2CC[C@@H](Cn3ccc(Cl)cc3=O)C3(CCCC3)C2)[C@H](c2cc(F)ccc2F)C1` [Example 123, 4-Chloro-1-(((R)-7-((2S,4R)-2-(2,5-difluorophenyl)-4-(methylamino)piperidine-1-carbonyl)-7-azaspiro[4.5]decan-10-yl)methyl)pyridin-2(1H)-one] reads less than 10 nM; that for `O=C(N1CC[C@H](Cn2cnc(-c3ccccc3)cc2=O)C2(CCCC2)C1)N1CCNC[C@H]1c1ccccc1` (single isomer, unassigned) [Example 13], 100 to 1000 nM; that for `CN[C@@H]1CCN(C(=O)N2CC[C@@H](Cn3cnc(-c4ccccc4)cc3=O)C3(CCCC3)C2)[C@H](c2ccc(F)cc2F)C1` [Example 94, 3-(((R)-7-((2S,4R)-2-(2,4-Difluorophenyl)-4-(methylamino)piperidine-1-carbonyl)-7-azaspiro[4.5]decan-10-yl)methyl)-6-phenylpyrimidin-4(3H)-one], less than 10 nM.
The result for `O=C(NCc1ccccc1)N1CCC(Cn2cnc(-c3ccccc3)cc2=O)C2(CCCC2)C1` (stereo not drawn) [Example 10, N-Benzyl-10-((6-oxo-4-phenylpyrimidin-1(6H)-yl)methyl)-7-azaspiro[4.5]decane-7-carboxamide] reads 100 to 1000 nM; that for `O=C(N[C@@H]1CCN(C(=O)N2CC[C@@H](Cn3cnc(-c4ccccc4)cc3=O)C3(CCCC3)C2)[C@H](c2cc(F)ccc2F)C1)C1CC1` [Example 164, N-((2S,4R)-2-(2,5-Difluorophenyl)-1-((R)-10-((6-oxo-4-phenylpyrimidin-1(6H)-yl)methyl)-7-azaspiro[4.5]decane-7-carbonyl)piperidin-4-yl)cyclopropanecarbox-amide], less than 10 nM.
As to `CC(=O)N[C@@H]1CCN(C(=O)N2CC[C@@H](Cn3cnc(-c4ccccc4)cc3=O)C3(CCCC3)C2)[C@H](c2cc(F)ccc2F)C1` [Example 155, N-((2S,4R)-2-(2,5-Difluorophenyl)-1-((R)-10-((6-oxo-4-phenylpyrimidin-1(6H)-yl)methyl)-7-azaspiro[4.5]decane-7-carbonyl)piperidin-4-yl)acetamide], the IC50 is less than 10 nM.
In the case of `CN[C@@H]1CCN(C(=O)N2CC[C@@H](Cn3cnc(C(F)F)cc3=O)C3(CCCC3)C2)[C@H](c2ccc(F)cc2F)C1` [Example 130, 6-(Difluoromethyl)-3-(((R)-7-((2S,4R)-2-(2,4-difluorophenyl)-4-(methylamino)piperidine-1-carbonyl)-7-azaspiro[4.5]decan-10-yl)methyl)pyrimidin-4(3H)-one], the IC50 was less than 10 nM.
Under `CCN[C@@H]1CCN(C(=O)N2CC[C@@H](Cn3cnc(-c4ccccc4)cc3=O)C3(CCCC3)C2)[C@H](c2cc(F)ccc2F)C1` [Example 156, 3-(((R)-7-((2S,4R)-2-(2,5-Difluorophenyl)-4-(ethylamino)piperidine-1-carbonyl)-7-azaspiro[4.5]decan-10-yl)methyl)-6-phenylpyrimidin-4(3H)-one] stands less than 10 nM.
Under `Cc1ccn(CC2CCN(C(=O)N3CC[C@@H](N)C[C@H]3c3ccccc3)CC23CCCC3)c(=O)c1` (stereo partly drawn) [Example 39, 1-((7-((2S,4R)-4-Amino-2-phenylpiperidine-1-carbonyl)-7-azaspiro[4.5]decan-10-yl)methyl)-4-methylpyridin-2(1H)-one] stands 10 to 100 nM.
Under `CN[C@@H]1CCN(C(=O)N2CC[C@@H](Cn3cnc(-c4ccccc4C)cc3=O)C3(CCCC3)C2)[C@H](c2ccccc2)C1` [Example 84, 3-(((R)-7-((2S,4R)-4-(Methylamino)-2-phenylpiperidine-1-carbonyl)-7-azaspiro[4.5]decan-10-yl)methyl)-6-(o-tolyl)pyrimidin-4(3H)-one] stands less than 10 nM.
Turning to `O=C(N1CC[C@@H](Cn2ccc(-c3ccccc3)cc2=O)C2(CCCC2)C1)N1CC[C@H](NC2CS(=O)(=O)C2)C[C@H]1c1ccccc1` [Example 51, 1-(((R)-7-((2S,4S)-4-((1,1-Dioxidothietan-3-yl)amino)-2-phenylpiperidine-1-carbonyl)-7-azaspiro[4.5]decan-10-yl)methyl)-4-phenylpyridin-2(1H)-one], the IC50 lay in the range of 100 to 1000 nM.
As to `CN[C@@H]1CCN(C(=O)N2CC[C@@H](Cn3cnc(-c4ccccc4F)cc3=O)C3(CCCC3)C2)[C@H](c2ccc(F)cc2F)C1` [Example 141, 3-(((R)-7-((2S,4R)-2-(2,4-Difluorophenyl)-4-(methylamino)piperidine-1-carbonyl)-7-azaspiro[4.5]decan-10-yl)methyl)-6-(2-fluorophenyl)pyrimidin-4(3H)-one], the half-maximal inhibitory concentration (IC50) was less than 10 nM.
The result for `N[C@@H]1CCN(C(=O)N2CC[C@@H](Cn3cnc4ccc(F)cc4c3=O)C3(CCCC3)C2)[C@H](c2cc(F)cc(F)c2)C1` [Example 181, 3-(((R)-7-((2S,4R)-4-Amino-2-(3,5-difluorophenyl)piperidine-1-carbonyl)-7-azaspiro[4.5]decan-10-yl)methyl)-6-fluoroquinazolin-4(3H)-one hydrochloride] reads less than 10 nM.
The result for `CN[C@@H]1CCN(C(=O)N2CC[C@@H](Cn3ccc(-c4ccccc4C)cc3=O)C3(CCCC3)C2)[C@H](c2ccccc2)C1` [Example 54, 1-(((R)-7-((2S,4R)-4-(Methylamino)-2-phenylpiperidine-1-carbonyl)-7-azaspiro[4.5]decan-10-yl)methyl)-4-(o-tolyl)pyridin-2(1H)-one] reads less than 10 nM.
